What all share (type): biochemical
One experiment addresses T1, PRAK (Homo sapiens, UniProt Q8IW41).
T1 sequence (Q8IW41 1-473): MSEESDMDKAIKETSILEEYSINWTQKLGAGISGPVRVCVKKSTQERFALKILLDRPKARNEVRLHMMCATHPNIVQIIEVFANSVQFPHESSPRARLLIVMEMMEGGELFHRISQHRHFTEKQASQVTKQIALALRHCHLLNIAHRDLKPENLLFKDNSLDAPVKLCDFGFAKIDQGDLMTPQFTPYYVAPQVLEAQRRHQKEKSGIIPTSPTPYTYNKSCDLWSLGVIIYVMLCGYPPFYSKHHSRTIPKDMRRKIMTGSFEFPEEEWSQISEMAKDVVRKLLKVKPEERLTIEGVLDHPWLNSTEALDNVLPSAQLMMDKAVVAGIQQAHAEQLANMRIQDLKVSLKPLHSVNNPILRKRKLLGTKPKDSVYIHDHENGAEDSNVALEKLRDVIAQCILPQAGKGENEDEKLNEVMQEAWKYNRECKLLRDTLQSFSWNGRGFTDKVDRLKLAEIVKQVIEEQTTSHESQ
The experiment in a line: Kinase profiling PRAK. The conditions noted are these: 100 micromolar inhibitor concentration, 100 is no change; for remaining activity at 100 µM: read-out: residual kinase activity, PRAK. The text has this:
(§1) Any value less that 25 is considered to be highly significant inhibition.

The next experiment concerns the target T2, CHK1 (Homo sapiens, UniProt O14757).
T2 sequence (O14757 1-476): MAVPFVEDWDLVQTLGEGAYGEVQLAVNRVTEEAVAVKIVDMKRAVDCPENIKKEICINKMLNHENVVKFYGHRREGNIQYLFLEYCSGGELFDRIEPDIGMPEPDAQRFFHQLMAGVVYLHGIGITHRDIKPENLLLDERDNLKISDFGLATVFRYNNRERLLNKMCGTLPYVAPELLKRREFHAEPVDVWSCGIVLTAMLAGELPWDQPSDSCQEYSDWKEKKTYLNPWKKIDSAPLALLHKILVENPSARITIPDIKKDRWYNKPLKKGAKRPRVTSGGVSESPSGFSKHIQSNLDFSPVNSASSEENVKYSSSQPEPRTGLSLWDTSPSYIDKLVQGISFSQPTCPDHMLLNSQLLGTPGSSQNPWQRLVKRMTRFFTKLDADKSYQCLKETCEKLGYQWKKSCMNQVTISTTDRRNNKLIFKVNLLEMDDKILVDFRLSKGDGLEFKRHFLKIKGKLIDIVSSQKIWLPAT
Briefly: Kinase profiling CHK1. The conditions noted are these: 100 micromolar inhibitor concentration, 100 is no change; for remaining activity at 100 µM: read-out: residual kinase activity, CHK1.
Description: as §1

The next experiment addresses CDK9-Cyclin T1 (Homo sapiens, UniProt P50750). The experiment in a line: Kinase profiling CDK9-Cyclin T1. Conditions: 100 micromolar inhibitor concentration, 100 is no change; for remaining activity at 100 µM: read-out: residual kinase activity, CDK9-Cyclin T1.
Description: as §1

A further experiment deals with SIK3 (Homo sapiens, UniProt Q9Y2K2). Briefly: Kinase profiling SIK3. Conditions: 100 micromolar inhibitor concentration, 100 is no change; for remaining activity at 100 µM: read-out: residual kinase activity, SIK3.
Description: as §1

The target in a further experiment is T3, TSSK1 (Homo sapiens, UniProt Q9BXA7).
T3 sequence (Q9BXA7 1-367): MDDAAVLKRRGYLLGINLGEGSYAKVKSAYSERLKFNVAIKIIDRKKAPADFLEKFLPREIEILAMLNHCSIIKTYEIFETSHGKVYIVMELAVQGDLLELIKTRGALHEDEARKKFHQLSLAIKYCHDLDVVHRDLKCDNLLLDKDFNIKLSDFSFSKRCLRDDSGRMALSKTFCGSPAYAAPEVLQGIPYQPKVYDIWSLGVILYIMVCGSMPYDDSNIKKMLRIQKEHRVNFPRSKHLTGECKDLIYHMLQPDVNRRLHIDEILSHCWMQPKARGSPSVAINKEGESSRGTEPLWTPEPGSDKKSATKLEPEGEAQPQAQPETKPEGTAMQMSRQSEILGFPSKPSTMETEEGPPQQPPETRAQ
Briefly: Kinase profiling TSSK1. The conditions noted are these: 100 micromolar inhibitor concentration, 100 is no change; for remaining activity at 100 µM: read-out: residual kinase activity, TSSK1.
Description: as §1

Another experiment deals with T4, IKKe (Homo sapiens, UniProt Q14164).
T4 sequence (Q14164 1-716): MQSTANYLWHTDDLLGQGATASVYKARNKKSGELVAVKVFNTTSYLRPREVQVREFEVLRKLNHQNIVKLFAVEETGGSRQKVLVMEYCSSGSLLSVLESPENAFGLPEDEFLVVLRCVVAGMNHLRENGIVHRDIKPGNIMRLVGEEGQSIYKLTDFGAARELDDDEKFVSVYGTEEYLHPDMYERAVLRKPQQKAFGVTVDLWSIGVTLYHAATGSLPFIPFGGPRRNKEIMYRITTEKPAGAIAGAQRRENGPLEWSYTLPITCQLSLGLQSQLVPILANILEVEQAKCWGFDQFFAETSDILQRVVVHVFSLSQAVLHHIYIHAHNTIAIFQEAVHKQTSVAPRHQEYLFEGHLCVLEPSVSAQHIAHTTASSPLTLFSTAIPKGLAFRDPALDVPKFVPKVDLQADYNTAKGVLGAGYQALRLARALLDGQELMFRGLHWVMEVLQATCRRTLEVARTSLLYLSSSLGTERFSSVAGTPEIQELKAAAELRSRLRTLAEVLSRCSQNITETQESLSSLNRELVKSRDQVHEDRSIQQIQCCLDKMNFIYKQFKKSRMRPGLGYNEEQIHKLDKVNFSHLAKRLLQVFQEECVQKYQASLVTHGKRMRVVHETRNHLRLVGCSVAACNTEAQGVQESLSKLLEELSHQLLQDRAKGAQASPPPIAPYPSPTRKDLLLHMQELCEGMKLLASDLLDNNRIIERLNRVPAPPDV
Briefly: Kinase profiling IKKe. The conditions noted are these: 100 micromolar inhibitor concentration, 100 is no change; for remaining activity at 100 µM: read-out: residual kinase activity, IKKe.
Description: as §1

In a further experiment the target is MAP4K5 (Homo sapiens, UniProt Q9Y4K4). Briefly: Kinase profiling MAP4K5. The conditions noted are these: 100 micromolar inhibitor concentration, 100 is no change; for remaining activity at 100 µM: read-out: residual kinase activity, MAP4K5.
Description: as §1

In another experiment the target is OSR1 (Homo sapiens, UniProt O95747). Briefly: Kinase profiling OSR1. The conditions noted are these: 100 micromolar inhibitor concentration, 100 is no change; for remaining activity at 100 µM: read-out: residual kinase activity, OSR1.
Description: as §1

The target in a further experiment is PDGFRA (Homo sapiens, UniProt P16234). Briefly: Kinase profiling PDGFRA. The conditions noted are these: 100 micromolar inhibitor concentration, 100 is no change; for remaining activity at 100 µM: read-out: residual kinase activity, PDGFRA.
Description: as §1

The record followed here is US10231954B2, “Neurodegenerative therapies” (LYTIX BIOPHARMA AS, priority 2014, dated 2019).

SIK3, sequence (Q9Y2K2 whole entry, species assumed): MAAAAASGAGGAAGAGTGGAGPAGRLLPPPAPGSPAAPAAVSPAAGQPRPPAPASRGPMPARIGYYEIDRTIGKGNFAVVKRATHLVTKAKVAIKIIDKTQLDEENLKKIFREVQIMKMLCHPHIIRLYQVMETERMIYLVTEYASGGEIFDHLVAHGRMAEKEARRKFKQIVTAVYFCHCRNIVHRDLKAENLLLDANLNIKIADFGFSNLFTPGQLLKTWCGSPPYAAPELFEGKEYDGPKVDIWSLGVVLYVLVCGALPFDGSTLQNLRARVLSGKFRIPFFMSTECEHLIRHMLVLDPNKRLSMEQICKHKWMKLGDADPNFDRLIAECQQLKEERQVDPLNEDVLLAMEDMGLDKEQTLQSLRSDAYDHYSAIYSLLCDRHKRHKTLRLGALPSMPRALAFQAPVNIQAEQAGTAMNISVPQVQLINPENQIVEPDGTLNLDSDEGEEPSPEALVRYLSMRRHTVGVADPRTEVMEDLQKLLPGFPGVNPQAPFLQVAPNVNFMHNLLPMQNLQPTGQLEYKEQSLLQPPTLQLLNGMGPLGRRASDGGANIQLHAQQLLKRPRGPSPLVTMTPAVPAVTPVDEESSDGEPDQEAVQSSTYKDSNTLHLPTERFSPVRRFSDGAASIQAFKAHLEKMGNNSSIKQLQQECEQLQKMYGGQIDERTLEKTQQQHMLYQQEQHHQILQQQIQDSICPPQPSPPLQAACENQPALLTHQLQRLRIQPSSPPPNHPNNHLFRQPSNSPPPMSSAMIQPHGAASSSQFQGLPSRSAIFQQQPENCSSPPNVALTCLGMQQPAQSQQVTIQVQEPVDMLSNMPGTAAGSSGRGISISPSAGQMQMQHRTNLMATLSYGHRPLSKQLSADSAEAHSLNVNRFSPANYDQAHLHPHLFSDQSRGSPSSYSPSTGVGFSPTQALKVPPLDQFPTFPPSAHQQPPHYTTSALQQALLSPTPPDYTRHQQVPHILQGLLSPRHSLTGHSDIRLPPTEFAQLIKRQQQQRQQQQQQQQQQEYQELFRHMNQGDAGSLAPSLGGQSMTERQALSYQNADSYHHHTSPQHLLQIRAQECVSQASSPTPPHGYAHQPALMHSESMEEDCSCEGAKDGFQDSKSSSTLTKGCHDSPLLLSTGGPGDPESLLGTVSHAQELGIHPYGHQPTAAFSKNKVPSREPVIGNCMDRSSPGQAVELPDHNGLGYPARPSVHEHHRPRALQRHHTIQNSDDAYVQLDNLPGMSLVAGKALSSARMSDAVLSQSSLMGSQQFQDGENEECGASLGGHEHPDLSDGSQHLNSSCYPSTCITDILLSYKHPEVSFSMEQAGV
MAP4K5, sequence (Q9Y4K4 whole entry, species assumed): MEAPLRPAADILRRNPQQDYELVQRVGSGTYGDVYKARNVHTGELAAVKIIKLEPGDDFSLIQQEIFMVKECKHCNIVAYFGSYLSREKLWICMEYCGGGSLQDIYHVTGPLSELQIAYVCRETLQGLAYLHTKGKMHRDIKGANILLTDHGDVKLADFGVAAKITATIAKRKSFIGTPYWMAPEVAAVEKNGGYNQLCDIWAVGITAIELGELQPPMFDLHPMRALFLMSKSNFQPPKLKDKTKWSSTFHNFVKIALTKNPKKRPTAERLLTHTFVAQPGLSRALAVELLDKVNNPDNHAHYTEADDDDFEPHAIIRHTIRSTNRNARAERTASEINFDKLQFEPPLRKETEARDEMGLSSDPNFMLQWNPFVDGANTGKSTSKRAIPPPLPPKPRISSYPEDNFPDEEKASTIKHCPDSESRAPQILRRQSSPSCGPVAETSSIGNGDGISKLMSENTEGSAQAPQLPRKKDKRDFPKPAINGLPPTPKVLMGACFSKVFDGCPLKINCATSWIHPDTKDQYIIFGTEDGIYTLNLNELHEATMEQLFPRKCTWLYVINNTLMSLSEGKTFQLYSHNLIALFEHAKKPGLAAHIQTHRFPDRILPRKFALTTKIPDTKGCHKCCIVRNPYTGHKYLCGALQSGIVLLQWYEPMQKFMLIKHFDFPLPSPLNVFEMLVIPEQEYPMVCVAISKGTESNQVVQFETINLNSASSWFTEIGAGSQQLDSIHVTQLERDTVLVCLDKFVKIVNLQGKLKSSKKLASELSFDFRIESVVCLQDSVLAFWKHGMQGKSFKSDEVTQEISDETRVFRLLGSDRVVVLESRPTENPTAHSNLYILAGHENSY
OSR1, sequence (O95747 whole entry): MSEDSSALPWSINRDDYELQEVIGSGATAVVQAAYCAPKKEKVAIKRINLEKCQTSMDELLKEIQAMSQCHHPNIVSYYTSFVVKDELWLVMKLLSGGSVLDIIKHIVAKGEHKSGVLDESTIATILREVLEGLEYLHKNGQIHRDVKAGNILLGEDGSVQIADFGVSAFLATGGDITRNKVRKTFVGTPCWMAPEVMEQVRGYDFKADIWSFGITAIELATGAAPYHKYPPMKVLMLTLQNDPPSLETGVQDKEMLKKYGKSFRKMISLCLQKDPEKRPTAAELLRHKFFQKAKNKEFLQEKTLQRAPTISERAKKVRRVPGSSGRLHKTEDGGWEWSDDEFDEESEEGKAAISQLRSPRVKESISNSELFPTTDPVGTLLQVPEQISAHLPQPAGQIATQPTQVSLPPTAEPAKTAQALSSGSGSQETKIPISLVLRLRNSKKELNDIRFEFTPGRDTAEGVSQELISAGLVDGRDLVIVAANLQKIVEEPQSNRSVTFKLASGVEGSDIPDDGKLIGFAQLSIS
CDK9-Cyclin T1, sequence (P50750 whole entry): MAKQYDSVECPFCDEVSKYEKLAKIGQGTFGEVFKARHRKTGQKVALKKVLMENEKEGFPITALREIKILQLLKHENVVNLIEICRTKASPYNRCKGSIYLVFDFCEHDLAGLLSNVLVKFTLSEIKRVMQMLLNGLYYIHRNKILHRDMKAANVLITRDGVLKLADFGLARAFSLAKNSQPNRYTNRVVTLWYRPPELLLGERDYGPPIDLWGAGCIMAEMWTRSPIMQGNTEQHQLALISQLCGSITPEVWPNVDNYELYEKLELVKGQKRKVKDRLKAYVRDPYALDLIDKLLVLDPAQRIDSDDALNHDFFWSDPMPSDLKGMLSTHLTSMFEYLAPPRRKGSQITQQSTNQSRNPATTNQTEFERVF
CDK9-Cyclin T1, sequence (O60563 whole entry partner): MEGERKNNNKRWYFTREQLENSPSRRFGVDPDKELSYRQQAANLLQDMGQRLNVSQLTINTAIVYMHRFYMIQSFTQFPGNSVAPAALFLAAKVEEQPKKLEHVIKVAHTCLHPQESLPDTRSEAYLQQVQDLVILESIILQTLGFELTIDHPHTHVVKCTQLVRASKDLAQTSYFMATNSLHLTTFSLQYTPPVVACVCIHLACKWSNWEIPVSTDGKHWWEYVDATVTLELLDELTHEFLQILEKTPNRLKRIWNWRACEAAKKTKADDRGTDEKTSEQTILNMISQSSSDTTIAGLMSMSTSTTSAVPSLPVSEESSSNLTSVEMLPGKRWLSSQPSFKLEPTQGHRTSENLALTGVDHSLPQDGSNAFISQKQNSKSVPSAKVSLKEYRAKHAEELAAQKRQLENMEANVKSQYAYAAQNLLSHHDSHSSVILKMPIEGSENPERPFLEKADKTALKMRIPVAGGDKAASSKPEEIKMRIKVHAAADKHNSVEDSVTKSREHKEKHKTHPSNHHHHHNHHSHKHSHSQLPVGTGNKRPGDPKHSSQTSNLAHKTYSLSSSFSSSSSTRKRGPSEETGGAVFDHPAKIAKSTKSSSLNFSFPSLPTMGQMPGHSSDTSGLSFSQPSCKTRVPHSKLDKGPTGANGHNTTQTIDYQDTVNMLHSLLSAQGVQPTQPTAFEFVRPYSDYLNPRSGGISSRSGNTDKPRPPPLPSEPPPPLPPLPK
PDGFRA, sequence (P16234 24-1089, species assumed): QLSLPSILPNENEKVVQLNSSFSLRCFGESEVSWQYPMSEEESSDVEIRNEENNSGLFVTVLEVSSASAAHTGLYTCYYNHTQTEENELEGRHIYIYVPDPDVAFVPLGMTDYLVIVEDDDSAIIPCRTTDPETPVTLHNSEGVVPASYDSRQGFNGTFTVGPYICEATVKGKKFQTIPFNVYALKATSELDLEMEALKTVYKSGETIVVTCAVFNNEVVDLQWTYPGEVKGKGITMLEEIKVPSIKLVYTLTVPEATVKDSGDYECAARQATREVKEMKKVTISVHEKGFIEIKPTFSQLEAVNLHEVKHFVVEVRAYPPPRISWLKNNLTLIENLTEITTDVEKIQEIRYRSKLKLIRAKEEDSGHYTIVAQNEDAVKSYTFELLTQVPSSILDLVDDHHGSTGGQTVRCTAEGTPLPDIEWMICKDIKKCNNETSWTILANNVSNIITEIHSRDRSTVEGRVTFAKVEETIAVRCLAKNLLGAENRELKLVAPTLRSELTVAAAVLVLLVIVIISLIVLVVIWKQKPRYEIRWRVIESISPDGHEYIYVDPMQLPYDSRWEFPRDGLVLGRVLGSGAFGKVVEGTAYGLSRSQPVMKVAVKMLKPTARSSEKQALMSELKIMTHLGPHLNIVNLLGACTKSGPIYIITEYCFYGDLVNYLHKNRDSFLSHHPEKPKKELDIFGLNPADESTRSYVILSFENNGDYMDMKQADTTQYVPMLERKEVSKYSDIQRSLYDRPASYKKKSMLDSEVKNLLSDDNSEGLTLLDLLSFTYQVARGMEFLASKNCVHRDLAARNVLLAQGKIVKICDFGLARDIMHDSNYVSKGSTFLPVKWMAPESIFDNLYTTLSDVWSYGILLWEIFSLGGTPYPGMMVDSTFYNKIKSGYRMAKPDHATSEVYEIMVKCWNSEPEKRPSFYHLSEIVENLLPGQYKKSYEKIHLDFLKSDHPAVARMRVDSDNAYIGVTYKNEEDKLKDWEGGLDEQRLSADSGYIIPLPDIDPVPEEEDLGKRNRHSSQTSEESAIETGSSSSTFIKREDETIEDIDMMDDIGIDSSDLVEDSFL

Turning to `O=C(Nc1nc2cc(O)ccc2s1)c1cccnc1` [Compound 03-33], the “residual kinase activity, PRAK” value at PRAK turned out to be 83. The “residual kinase activity, CHK1” value on CHK1 is given as 106. Besides, at CDK9-Cyclin T1, the “residual kinase activity, CDK9-Cyclin T1” value is 97. Besides, the “residual kinase activity, SIK3” value at SIK3 is reported as 92. Besides, at TSSK1, the “residual kinase activity, TSSK1” value is listed as 75. The “residual kinase activity, IKKe” value at IKKe came out at 81. Also, the “residual kinase activity, MAP4K5” value on MAP4K5 came to 58. Also, the “residual kinase activity, OSR1” value on OSR1 is on record as 109. Also, the “residual kinase activity, PDGFRA” value at PDGFRA came to 61.

With `O=C(Nc1nc2ccc(O)cc2s1)c1ccccc1` [Compound 03-60], the “residual kinase activity, PRAK” value at PRAK came out at 39. For the same molecule, on CHK1, the “residual kinase activity, CHK1” value is recorded as 72. Moreover, the “residual kinase activity, CDK9-Cyclin T1” value on CDK9-Cyclin T1 is on record as 76. Further, the “residual kinase activity, SIK3” value at SIK3 is reported as 42. For the same molecule, the “residual kinase activity, TSSK1” value at TSSK1 is on record as 27. Further, the “residual kinase activity, IKKe” value at IKKe was determined as 27. The “residual kinase activity, MAP4K5” value on MAP4K5 worked out at 31. Besides, at OSR1, the “residual kinase activity, OSR1” value amounted to 82. For the same molecule, the “residual kinase activity, PDGFRA” value at PDGFRA worked out at 29.

For the molecule `CC(=O)Nc1nc2cc(C(F)(F)F)ccc2s1` [Compound 03-73], the remaining activity at 100 µM was found to be 87% on PRAK; 110% at CHK1; 97% at CDK9-Cyclin T1; 103% at SIK3; 71% at TSSK1; 93% on IKKe. The remaining activity at 100 µM is 73% at MAP4K5, 113% on OSR1 and 34% at PDGFRA.

Regarding `CC(=O)Nc1nc2cc(C)ccc2s1` [Compound 03-76], the “residual kinase activity, PRAK” value at PRAK came to 75. In addition, the “residual kinase activity, CHK1” value on CHK1 turned out to be 102. In addition, the “residual kinase activity, CDK9-Cyclin T1” value at CDK9-Cyclin T1 came out at 49. Besides, at SIK3, the “residual kinase activity, SIK3” value is reported as 103. For the same molecule, the “residual kinase activity, TSSK1” value at TSSK1 was found to be 79. For the same molecule, the “residual kinase activity, IKKe” value on IKKe was 89. Also, the “residual kinase activity, MAP4K5” value at MAP4K5 came out at 83. Further, the “residual kinase activity, OSR1” value on OSR1 came out at 116. At PDGFRA, the “residual kinase activity, PDGFRA” value turned out to be 59.

With `CC(=O)Nc1nc2cc(F)ccc2s1` [Compound 03-77], the remaining activity at 100 µM is 76% at PRAK; 103% at CHK1; 46% at CDK9-Cyclin T1; 89% at SIK3; 84% at TSSK1; 91% on IKKe. Also, the remaining activity at 100 µM on MAP4K5 came out at 65%; on OSR1 it was 109%; at PDGFRA, 59%.

As for `O=C(Nc1nc2ccc(O)cc2s1)c1ccncc1` [Compound 08-42], the “residual kinase activity, PRAK” value on PRAK amounted to 74. Also, the “residual kinase activity, CHK1” value on CHK1 was 70. The “residual kinase activity, CDK9-Cyclin T1” value on CDK9-Cyclin T1 is 66. Moreover, the “residual kinase activity, SIK3” value at SIK3 stood at 67. Moreover, the “residual kinase activity, TSSK1” value on TSSK1 is listed as 85. For the same molecule, the “residual kinase activity, IKKe” value at IKKe is 47. Further, the “residual kinase activity, MAP4K5” value on MAP4K5 is reported as 67. Also, the “residual kinase activity, OSR1” value on OSR1 was 72. The “residual kinase activity, PDGFRA” value at PDGFRA was 40.

In the case of `O=C(Nc1nc2ccc(O)cc2s1)c1cccnc1` [Compound 08-44], the “residual kinase activity, PRAK” value at PRAK amounted to 60. In addition, the “residual kinase activity, CHK1” value on CHK1 came to 78. For the same molecule, the “residual kinase activity, CDK9-Cyclin T1” value on CDK9-Cyclin T1 was 43. At SIK3, the “residual kinase activity, SIK3” value was 80. The “residual kinase activity, TSSK1” value at TSSK1 stood at 109. Moreover, the “residual kinase activity, IKKe” value on IKKe is listed as 50. Moreover, the “residual kinase activity, MAP4K5” value at MAP4K5 was 81. In addition, at OSR1, the “residual kinase activity, OSR1” value came to 51. At PDGFRA, the “residual kinase activity, PDGFRA” value is given as 44.
